In patent US5795858A, “Treatment or prevention of Crohn's disease and/or ulcerative colitis” (Peptide Technology Limited, priority 1993, dated 1998):
Entries after “also recorded” stand apart in the source; their conditions may differ.

System: TNBS colitis
Assay: TNBS colitis in rats, 2 week series, once daily s.c. treatment
Format: in vivo, Male Sprague-Dawley rats
Description: Treatment was continued on a once daily basis for the following 14 or 28 days. On day 14 (2 week series) or 28 (4 week series), animals were weighed and anaesthetised with pentobarbital. A cardiac puncture was performed to obtain a sample of peripheral blood for the determination of total white blood cell count (WBC) using a coulter counter, and differential count. A midline laparotomy was then performed and the colon exposed and excised. The colon was then opened longitudinally and rinsed clear of […] material. The severity of colonic mucosal injury, diarrhoea, and adhesions was then scored by an observer unaware of the treatment group of the animals using the attached criteria. The length (in cm) and weight of each colonic segment was then determined to allow the determination of the colonic weight/length ratio (as an index of intramural edema and/or fibrosis). Samples of tissue were then taken for biochemical determination of tissue myeloperoxidase (MPO) activity, as an index of granulocyte accumulation using standard biochemical techniques. Samples of tissue were also taken and fixed for subsequent processing for histopathological examination. Differences between the different treatment groups were analysed using either one way analysis of variance (body weight, WBC counts, colonic weight/length ratio, […] activity) or the non-parametric equivalent Kruskall-Wallis test (semiquantitive grading of severity of mucosal injury, adhesions, or diarrhoea). Significance of differences between individual pairs of treatment groups were then assessed using post hoc Tukey's test for parametric data and Dunn's multiple comparison test for non-parametric data. […]

| Compound | total WBC counts (5 mg/kg once daily s.c. for 2 weeks, vs TNBS colitis animals receiving vehicle, p 0.06-0.07, FIG. 1) | severity of colonic adhesions (5 mg/kg once daily s.c., 2 weeks, FIG. 4) | TNBS colitis-associated changes in body weight (weight gain) (5 mg/kg once daily s.c., 2 weeks, initial vs final body weight, FIG. 2) | colonic weight/length ratio (index of colonic edema) (5 mg/kg once daily s.c., 2 weeks, pattern compared with adhesions (no significant reduction, trend towards reduction), FIG. 5) | colonic myeloperoxidase activity (index of granulocyte accumulation) (5 mg/kg once daily s.c., 2 weeks, pattern compared with adhesions (no significant reduction, trend towards reduction), FIG. 7) | TNBS colitis-associated changes in body weight (weight gain) (rat, in vivo) | colonic myeloperoxidase activity (index of granulocyte accumulation) (rat, in vivo) | colonic weight/length ratio (index of colonic edema) (rat, in vivo) | reducing failure to thrive/lack of weight gain (rat, in vivo) | reducing the severity of the leukocytosis (rat, in vivo) | severity of colonic adhesions (rat, in vivo) | severity of mucosal injury (semiquantitative grading scale) (rat, in vivo) | total WBC counts (rat, in vivo) |
| --- | --- | --- | --- | --- | --- | --- | --- | --- | --- | --- | --- | --- | --- |
| C[C@]12C=CC(=O)C=C1CC[C@@H]1[C@@H]2C(=O)C[C@@]2(C)[C@H]1CC[C@]2(O)C(=O)CO [prednisone, reference compound] | reductions in total WBC counts | general trend towards reduction of adhesions | increased weight gains in animals with colitis, with this becoming significant (p<0.05) | Virtually identical patterns | Virtually identical patterns |  |  |  |  |  |  |  |  |
| D--Ala--Ser--Thr--Thr--Thr--Asn--Tyr--Thr--NH2 [Peptide T] |  |  |  |  |  | increased weight gains in animals with colitis, with this becoming significant (p<0.05); also recorded: approaching significance (p values of 0.06 to 0.08) | Virtually identical patterns | Virtually identical patterns | comparable to prednisone | comparable to prednisone | general trend towards reduction of adhesions | may have marginally reduced the severity of mucosal injury | reductions in total WBC counts |
